Data set [1] deals with LDL incubated with mouse peritoneal macrophages. Kind of data set: Ability of macrophages to oxidize LDL after preincubation with probucol or diglutaryl probucol (TBARS). The data set is classed as cell-based. Here is the method: (§1) After 48 hours the cells were washed 3 times with 3 ml of Ham's F-10 and then subjected to incubation with ^125 I-LDL (1100 μg/ml) in 2 ml of Ham's F-10 for 20 hours. TBARS and subsequent macrophage degradation were determined. The results are averages from a triplicate determination from a representative set.
(§2) After several washings with Ham's F-10, the cells were then incubated with 200 μg of ^125 I-LDL in 2 ml. of Ham's F-10 for 24 hours. […] However, because the probucol was obviously not in solution and might remain absorbed to the cell surface even after washing, it is possible that residual probucol on the cell surface accounted for the apparent protection during the second incubation, i.e., probucol from the cell surface might transfer into the LDL during the first part of the second incubation.
(§3) Then the cells were thoroughly washed to remove any extracellular inhibitors. Specifically, they were washed three times with 3 ml of F-10 containing 10% fetal calf serum and then incubated with labeled LDL for an additional 24 hours. […] The values given are from a typical experiment from three or more separate experiments.

Data set [2] has the same test system. Kind of data set: Macrophage degradation of LDL previously incubated with pretreated macrophages (biological modification). The class given is cell-based. Here is the method: as §1, §2, §3
The test system of data set [3] is LDL incubated with endothelial cells (EC). Kind of data set: Ability of endothelial cells (EC) to induce LDL oxidation after pretreatment (TBARS). The data set is classed as cell-based. Conditions: Set A, 3 hours at 37° C., LDL 24 hours. Here is the method:
as §3

The test system is the same in data set [4]. Put plainly: Macrophage degradation of LDL previously incubated with pretreated endothelial cells (biological modification). Conditions: Set A, 3 hours at 37° C., LDL 24 hours. The class given is cell-based. Here is the method: as §3
Data set [5] deals with LDL. Kind of data set: Inhibition of oxidative modification of LDL, compound present during 24 hour incubation. The data set is classed as cell-based.
A further data set deals with macrophages. Put plainly: Uptake of ^14 C-labeled water-soluble derivative by macrophages. Conditions: for Cell associated ^14 C-radioactivity: 3 hours at 37° C. The data set is classed as cell-based, mouse. Here is the method: (§4) The cells were then washed three times with DME. […] The cells were dissolved in 1 ml of 0.01% Triton X-100 before the determination of radioactivity. Values for macrophages represent averages of duplicate determinations from one of two separate trials. Values for endothelial cells are from four individual cell incubations.

The test system of data set [6] is endothelial cells. Kind of data set: Uptake of ^14 C-labeled water-soluble derivative by endothelial cells. The class given is cell-based. The following applies: 5 nmol added, 3 hours at 37° C., four individual cell incubations. Here is the method:
as §4

The test system of data set [7] is endothelial cells. Put plainly: Uptake, retention and release of probucol by endothelial cells incubated with ^14 C-labeled diglutaryl probucol. The data set is classed as cell-based. As to the method:
(§5) Nevertheless, after two subsequent incubations with LDL at 100 μg/ml for 24 hours each, 30-45% of the incorporated radioactivity was still associated with the cells. […] Thus, cells enriched in probucol, also released the antioxidant into the medium which may offer additional protection against oxidation. The rate of release of probucol from cells was not followed in these studies.

Data set [8] concerns LDL incubated with endothelial cells. Put plainly: Oxidation of LDL recovered from the medium of diglutaryl probucol-pretreated endothelial cells. The data set is classed as cell-based. Conditions: endothelial cells preincubated with 25 nmol for 3 hours. Here is the method: as §5
The test system of data set [9] is LDL. Kind of data set: Subsequent copper modification of LDL recovered from pretreated endothelial cells. The class given is biochemical. Here is the method:
as §5

The nature of data set [10]: Hydrolysis to free probucol. The data set is classed as physicochemical. An excerpt: A particularly preferred embodiment of the present invention is a class of dicarboxylic acid esters of probucol compounds which can be dissolved as sodium or potassium salts.
(§6) The product was purified by silicic acid column chromatography using increasing amounts of ether in hexane. The purified product gave a single spot on TLC (Rf 0.18) distinct from the parent compound (Rf 0.68). Upon alkaline hydrolysis, the compound yielded free probucol.

The next data set is described as follows: Solubility. The class given is physicochemical. Here is the method:
as §6
More than 96% of the labeled derivative readily went into the solution as the sodium salt and when incubated with macrophages was effectively taken up by the cells.

The conditions of data set [11]: cited from earlier work.
Data set [12] has as its system endothelial cells. Conditions: cited from earlier work.
The subject of data set [13] is LDL receptor-deficient rabbits. The following applies: cited from earlier work.
The test system of the next data set is rat. The following applies: given orally for some time before tying off a renal artery; cited from earlier work.
Data set [14] deals with LDL. The following applies: cited from earlier work.
Where [15] appears, read: Set B, macrophages pretreated with 10 μM, 3 hours at 37° C., LDL 24 hours.
Setting [16] is: Set B, macrophages pretreated with 20 μM, 3 hours at 37° C., LDL 24 hours.
The mark [17] stands for this setting: Set B, macrophages pretreated with 30 μM, 3 hours at 37° C., LDL 24 hours.
Setting [18] is: macrophages pretreated with 500 nmol/ml probucol in ethanol, 48 hours, then LDL.
Where [19] appears, read: EC pretreated with 100 μM (probucol in ethanol).

Regarding `CC(C)(Sc1cc(C(C)(C)C)c(OC(=O)CCCC(=O)O)c(C(C)(C)C)c1)Sc1cc(C(C)(C)C)c(OC(=O)CCCC(=O)O)c(C(C)(C)C)c1` [diglutaryl probucol, probucol diglutarate], the TBARS in [1] (setting [15]) is recorded as 5.3 nmol/mg protein; in data set [1] (setting [16]), 4.1 nmol/mg protein; in data set [1] (setting [17]), 3.3 nmol/mg protein; in data set [3] (EC pretreated with 25 μM), 12.1 nmol/mg protein; in data set [3] (EC pretreated with 50 μM) it was 6.5 nmol/mg protein. The “Inhibition of LDL modification by pretreated cells” value in data set [1] (concentrations as low as 10 μM, 3 hours pretreatment) is “inhibited the modification completely”. In addition, the Macrophage degradation was 2.2 μg/5 h per mg cell protein in data set [2] (setting [15]); 1.6 μg/5 h per mg cell protein in data set [2] (setting [16]); 1.4 μg/5 h per mg cell protein in data set [2] (setting [17]); 1.5 μg/5 h per mg cell protein in data set [4] (EC pretreated with 25 μM); 1.3 μg/5 h per mg cell protein in [4] (EC pretreated with 50 μM). The same compound showed an inhibition at 2.5 µM in the data set on LDL [5] greater than 50%. Moreover, the “Cell associated radioactivity in the form of the precursor, probucol diglutarate” value in the data set with macrophages (at 60 minutes) is recorded as “about half”. In addition, the “Cell associated ^14 C-radioactivity” value worked out at 2.5 nmol in the data set with macrophages (macrophages, 5 nmol added); 3.7 nmol with macrophages (macrophages, 10 nmol added); 4.2 nmol in the data set with macrophages (macrophages, 15 nmol added); 5.2 nmol with macrophages (macrophages, 20 nmol added); 6.5 nmol in the data set on macrophages (macrophages, 25 nmol added); 1.9 ± 0.14 nmol in the data set with endothelial cells [6]. Besides, the “Added radioactivity associated with the cells” value in the data set on macrophages (macrophages, after 2 hours) was 25-30%. In addition, in the data set with macrophages (macrophages, after 2 hours), the “Amount associated with the cells” value is listed as 2.5-6.5 nmol of probucol/~40 μg of cell protein. Moreover, the “Incorporated radioactivity still associated with the cells” value in the data set on endothelial cells [7] (50-200 nmol, after two subsequent incubations with LDL at 100 μg/ml for 24 hours each) was 30-45%. The “Release of free probucol into the medium” value in the data set with endothelial cells [7] (endothelial cells incubated with 50-200 nmol, 24 hour incubation after washings) is on record as “considerable release of free probucol into the medium”. Also, the “Oxidation of LDL recovered from the medium” value in data set [8] was “absence of oxidation”. Moreover, the “Modification of recovered LDL upon subsequent incubation with 5 μM copper” value with LDL [9] (endothelial cells preincubated with 25 nmol for 3 hours) is on record as “readily modified”; with LDL [9] (endothelial cells preincubated with 50-200 nmol), “resistant to modification”. In addition, in data set [10] (24 hour incubation, medium), the “Hydrolysis in the course of incubation” value was “almost completely hydrolyzed”. In [10] (sodium salt in aqueous solution), the “Hydrolysis in aqueous solution” value was “slow hydrolysis”. In addition, in “Solubility” (acid form), the “Solubility in organic solvents” value is reported as “soluble in organic solvents”. Moreover, in “Solubility” (as the sodium salt), the “Labeled derivative going into solution” value is “More than 96%”. In addition, the “Solubility in sodium bicarbonate solution” value in “Solubility” (sodium bicarbonate solution, after removal of organic solvent) is reported as “can be dissolved in sodium bicarbonate solution”.

As to `CC(C)(Sc1cc(C(C)(C)C)c(O)c(C(C)(C)C)c1)Sc1cc(C(C)(C)C)c(O)c(C(C)(C)C)c1` [probucol, 4,4'-(isopropylidenedithio) bis(2,6-di-tert-butylphenol), reference compound], the “LDL modification by cells as compared to control cells not pretreated” value in data set [1] (cells preincubated with probucol 500 nmol/ml) is on record as “modified LDL poorly as compared to control cells”. For the same compound, the TBARS in data set [1] (setting [18]) is given as 11.2 nmol/mg protein; in data set [3] (setting [19]), 42.5 nmol/mg protein. Also, the Macrophage degradation is given as 2.1 μg/5 h per mg cell protein in data set [2] (setting [18]) and 6.4 μg/5 h per mg cell protein in data set [4] (setting [19]). For the same compound, the “Probucol released into the medium” value in the data set with endothelial cells [7] (24 hour incubation with LDL, 50-200 nmol diglutaryl probucol) is reported as “about 7 nmol”. For the same compound, the “Probucol incorporated into the cells” value in the data set with endothelial cells [7] (endothelial cells, 50-200 nmol diglutaryl probucol) is listed as “more than 15 nmol”. Also, in “Solubility” (500 nmol/ml added in ethanol, medium grossly milky), the Solubility in medium entry is “very limited solubility”. Moreover, the Solubility in lipid entry in data set [11] was “highly lipid soluble”. The Solubility in water entry in data set [11] (water) was “almost insoluble in water”. Besides, the “Incorporation into endothelial cells” value with endothelial cells [12] (50 μM probucol, 24 h) is “less than 1 μg of probucol/10^6 cells”. For the same compound, the “Rate of entrance into cells in culture” value in the data set with endothelial cells [12] (cells in culture) was “slow”. Also, the Progression of atherosclerosis result in data set [13] is “slow the progression of atherosclerosis”. Also, the “Post-perfusion injury in the kidney” value in the data set on rat was “can limit the post-perfusion injury in the kidney”. Also, the “Oxidative modification of LDL” value in the data set on LDL [14] is on record as “block oxidative modification of LDL”.

The record behind these values is patent US5262439A (priority 1992, dated 1993).
